Test results: BigSolDB 2.1

OCc1cn(Cc2ccccc2)nn1
solubility (mole fraction)
Conditions	292.15 K	295.15 K	298.15 K	301.15 K	304.15 K	307.15 K	310.15 K
in ethanol	0.0566	0.0681	0.0833	0.103	0.129	0.158	0.198
in isopropanol	0.0322	0.039	0.047	0.0576	0.0707	0.0889	0.112
in methanol	0.122	0.146	0.172	0.2	0.222	0.262	0.3
in n-butanol	0.0342	0.0408	0.0481	0.0579	0.0695	0.0832	0.1
in n-propanol	0.0422	0.0502	0.0607	0.0742	0.0909	0.113	0.141
in water	0.00147	0.0017	0.00197	0.00237	0.0029	0.00356	0.00433
